{"source": "patent US6355453B1", "about": "“Method for making fluorinated sugars having a side chain and use thereof” (Forschungszentrum Julich GmbH, priority 1998, dated 2002)", "key": {"[1]": {"target": "T1, N-acetylneuraminic acid aldolase (Escherichia coli, UniProt P0A6L4)", "settings": "value given in the literature; read-out: Km value for the standard ManNAc/Pyr reaction; cited from earlier work"}, "O=C(O)C(=O)CF": {"system": "O=C(O)C(=O)CF", "assay": "purified protein, by the assay type", "settings": "other: ManNAc/F-pyr reaction, 24 U*/ml aldolase, pH 7.5, 25° C."}, "[2]": {"target": "T1, N-acetylneuraminic acid aldolase", "assay": "Kinetic study of the aldolase-catalysed ManNAc/F-pyr reaction (Equation 1, non-linear regression of initial-rate data)"}}, "data": [{"compound": "CC(=O)C(=O)O", "note": "[Pyr, pyruvic acid]", "values": [{"measurement": "Km", "setting": "[1]", "value": 8.5, "unit": "mM"}]}, {"compound": "N-acetylneuraminic acid aldolase (Escherichia coli K-12)", "values": [{"measurement": "Km", "setting": "O=C(O)C(=O)CF", "value": 41, "unit": "mM"}]}, {"compound": "O=C(O)C(=O)CF", "note": "[F-Pyr, 1-fluoro-2-oxopropanoic acid]", "values": [{"measurement": "Ki", "setting": "[2]", "value": 49, "unit": "mM"}, {"measurement": "maximal activity of the reaction", "setting": "[2]; enzyme charge of >24 U*/mg", "value": 0.9, "unit": "U/mg"}]}]}
